In patent publication US20260015358A1, “BICYCLIC DERIVATIVES, COMPOSITIONS AND USES THEREOF” (Danatlas Pharmaceuticals Co., Ltd., priority 2023, published 2026):

Legend:
[1] = target: T1, WRN [UniPro: Q14191 (WRN_HUMAN), N500-C946] (Homo sapiens (Human), UniProt Q14191); experiment: WRN unwinding assay (FORKF DNA, fluorescence); format: biochemical; conditions: Table 14
[2] = target: T1, WRN [UniPro: Q14191 (WRN_HUMAN), N500-C946]; experiment: WRN ATPase assay (ADP-Glo); format: biochemical; conditions: WRN enzymatic activity assay

T1 sequence (Q14191 500-946): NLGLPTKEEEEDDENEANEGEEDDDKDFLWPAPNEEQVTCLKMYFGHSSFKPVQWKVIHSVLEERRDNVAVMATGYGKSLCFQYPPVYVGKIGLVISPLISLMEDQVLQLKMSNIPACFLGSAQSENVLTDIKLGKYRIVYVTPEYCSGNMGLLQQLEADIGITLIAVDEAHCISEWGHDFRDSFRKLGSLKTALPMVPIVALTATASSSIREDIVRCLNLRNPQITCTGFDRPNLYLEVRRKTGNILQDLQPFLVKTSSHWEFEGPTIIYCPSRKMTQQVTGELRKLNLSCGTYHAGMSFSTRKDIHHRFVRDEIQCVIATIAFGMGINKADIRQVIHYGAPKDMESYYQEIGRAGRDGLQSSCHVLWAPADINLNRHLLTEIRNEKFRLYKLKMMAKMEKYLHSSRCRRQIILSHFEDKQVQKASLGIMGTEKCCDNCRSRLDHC

IC50 [1] | IC50 [2] | Structure (SMILES)
< 100 nM | < 100 nM | CCc1c(N2CCN(C(=O)C(=O)Nc3cc(C)no3)CC2)c(=O)n2nc(C3=CCOCC3)nc2n1CC(=O)Nc1ccc(C(F)(F)F)cc1Cl [Example 348, 2-(4-(4-(2-((2-Chloro-4-(trifluoromethyl)phenyl)amino)-2-oxoethyl)-2-(3,6-dihydro-2H-pyran-4-yl)-5-ethyl-7-oxo-4,7-dihydro-[1,2,4]triazolo[1,5-a]pyrimidin-6-yl)piperazin-1-yl)-N-(3-methylisoxazol-5-yl)-2-oxoacetamide]
100 to 1000 nM | 100 to 1000 nM | CCc1c(N2CCN(C(=O)c3sc4cccnc4c3N)CC2)c(=O)n2nc(C3=CCOCC3)nc2n1CC(=O)Nc1ccc(C(F)(F)F)cc1Cl [Example 2, 2-(6-(4-(3-Aminothieno[3,2-b]pyridine-2-carbonyl)piperazin-1-yl)-2-(3,6-dihydro-2H-pyran-4-yl)-5-ethyl-7-oxo-[1,2,4]triazolo[1,5-a]pyrimidin-4(7H)-yl)-N-(2-chloro-4-(trifluoromethyl)phenyl)acetamide]
< 100 nM | < 100 nM | CCc1c(N2CCN(C(=O)CNC(=O)[C@@H]3CCCO3)CC2)c(=O)n2nc(C3=CCOCC3)nc2n1CC(=O)Nc1ccc(C(F)(F)F)cc1Cl [Example 322, (S)—N-(2-(4-(4-(2-((2-Chloro-4-(trifluoromethyl)phenyl)amino)-2-oxoethyl)-2-(3,6-dihydro-2H-pyran-4-yl)-5-ethyl-7-oxo-4,7-dihydro-[1,2,4]triazolo[1,5-a]pyrimidin-6-yl)piperazin-1-yl)-2-oxoethyl)tetrahydrofuran-2-carboxamide]
< 100 nM | < 100 nM | CCc1c(N2CCN(C(=O)CNC(=O)c3cnn4cccc4c3O)CC2)c(=O)n2nc(C3=CCOCC3)nc2n1CC(=O)Nc1ccc(C(F)(F)F)cc1Cl [Example 109, N-(2-(4-(4-(2-((2-Chloro-4-(trifluoromethyl)phenyl)amino)-2-oxoethyl)-2-(3,6-dihydro-2H-pyran-4-yl)-5-ethyl-7-oxo-4,7-dihydro-[1,2,4]triazolo[1,5-a]pyrimidin-6-yl)piperazin-1-yl)-2-oxoethyl)-4-hydroxypyrrolo[1,2-b]pyridazine-3-carboxamide]
< 100 nM | 100 to 1000 nM | CCc1c(N2CCN(C(=O)CNC(=O)c3ncc[nH]3)CC2)c(=O)n2nc(C3=CCOCC3)nc2n1CC(=O)Nc1ccc(C(F)(F)F)cc1Cl [Example 106, N-(2-(4-(4-(2-((2-Chloro-4-(trifluoromethyl)phenyl)amino)-2-oxoethyl)-2-(3,6-dihydro-2H-pyran-4-yl)-5-ethyl-7-oxo-4,7-dihydro-[1,2,4]triazolo[1,5-a]pyrimidin-6-yl)piperazin-1-yl)-2-oxoethyl)-1H-imidazole-2-carboxamide]
< 100 nM | < 100 nM | CCc1c(N2CCN(C(=O)c3c[nH][nH]c3=O)CC2)c(=O)n2nc(C3=CCOCC3)nc2n1CC(=O)Nc1ccc(C(F)(F)F)cc1Cl [Example 63, N-(2-Chloro-4-(trifluoromethyl)phenyl)-2-(2-(3,6-dihydro-2H-pyran-4-yl)-5-ethyl-7-oxo-6-(4-(3-oxo-2,3-dihydro-1H-pyrazole-4-carbonyl)piperazin-1-yl)-[1,2,4]triazolo[1,5-a]pyrimidin-4(7H)-yl)acetamide]
< 100 nM | < 100 nM | CCc1c(N2CCN(C(=O)CNC(=O)c3cccc(F)c3O)CC2)c(=O)n2nc(C3=CCOCC3)nc2n1CC(=O)Nc1ccc(C(F)(F)F)cc1Cl [Example 211, N-(2-(4-(4-(2-((2-Chloro-4-(trifluoromethyl)phenyl)amino)-2-oxoethyl)-2-(3,6-dihydro-2H-pyran-4-yl)-5-ethyl-7-oxo-4,7-dihydro-[1,2,4]triazolo[1,5-a]pyrimidin-6-yl)piperazin-1-yl)-2-oxoethyl)-3-fluoro-2-hydroxybenzamide]
< 100 nM | < 100 nM | CCc1c(N2CCN(C(=O)CNC(=O)c3cccc(=O)[nH]3)CC2)c(=O)n2nc(C3=CCOCC3)nc2n1CC(=O)Nc1ccc(C(F)(F)F)cc1Cl [Example 366, N-(2-(4-(4-(2-((2-Chloro-4-(trifluoromethyl)phenyl)amino)-2-oxoethyl)-2-(3,6-dihydro-2H-pyran-4-yl)-5-ethyl-7-oxo-4,7-dihydro-[1,2,4]triazolo[1,5-a]pyrimidin-6-yl)piperazin-1-yl)-2-oxoethyl)-6-oxo-1,6-dihydropyridine-2-carboxamide]
< 100 nM | < 100 nM | CCc1c(N2CCN(C(=O)C(=O)Nc3nccs3)CC2)c(=O)n2nc(N3CCOCC3)nc2n1CC(=O)Nc1ccc(C(F)(F)F)cc1F [Example 260, 2-(4-(5-Ethyl-4-(2-((2-fluoro-4-(trifluoromethyl)phenyl)amino)-2-oxoethyl)-2-morpholino-7-oxo-4,7-dihydro-[1,2,4]triazolo[1,5-a]pyrimidin-6-yl)piperazin-1-yl)-2-oxo-N-(thiazol-2-yl)acetamide]
100 to 1000 nM | 100 to 1000 nM | CCC(=O)N(C(=O)Cn1c(CC)c(N2CCN(S(N)(=O)=O)CC2)c(=O)n2nc(C3=CCOCC3)nc12)c1ccc(C(F)(F)F)cc1Cl [Example 35, N-(2-Chloro-4-(trifluoromethyl)phenyl)-N-(2-(2-(3,6-dihydro-2H-pyran-4-yl)-5-ethyl-7-oxo-6-(4-sulfamoylpiperazin-1-yl)-[1,2,4]triazolo[1,5-a]pyrimidin-4(7H)-yl)acetyl)propionamide]
< 100 nM | < 100 nM | CCc1c(N2CCN(C(=O)CNC(=O)c3cc(O)ccc3F)CC2)c(=O)n2nc(C3=CCOCC3)nc2n1CC(=O)Nc1ccc(C(F)(F)F)cc1Cl [Example 290, N-(2-(4-(4-(2-((2-Chloro-4-(trifluoromethyl)phenyl)amino)-2-oxoethyl)-2-(3,6-dihydro-2H-pyran-4-yl)-5-ethyl-7-oxo-4,7-dihydro-[1,2,4]triazolo[1,5-a]pyrimidin-6-yl)piperazin-1-yl)-2-oxoethyl)-2-fluoro-5-hydroxybenzamide]
< 100 nM | < 100 nM | CCc1c(N2CCN(C(=O)C(=O)NOCc3ccccc3)CC2)c(=O)n2nc(C3=CCOCC3)nc2n1CC(=O)Nc1ccc(C(F)(F)F)cc1Cl [Example 337, N-(Benzyloxy)-2-(4-(4-(2-((2-chloro-4-(trifluoromethyl)phenyl)amino)-2-oxoethyl)-2-(3,6-dihydro-2H-pyran-4-yl)-5-ethyl-7-oxo-4,7-dihydro-[1,2,4]triazolo[1,5-a]pyrimidin-6-yl)piperazin-1-yl)-2-oxoacetamide]
< 100 nM | < 100 nM | CCc1c(N2CCN(C(=O)CNC(=O)c3cc(F)cc(NC)c3)CC2)c(=O)n2nc(C3=CCOCC3)nc2n1CC(=O)Nc1ccc(C(F)(F)F)cc1Cl [Example 284, N-(2-(4-(4-(2-((2-Chloro-4-(trifluoromethyl)phenyl)amino)-2-oxoethyl)-2-(3,6-dihydro-2H-pyran-4-yl)-5-ethyl-7-oxo-4,7-dihydro-[1,2,4]triazolo[1,5-a]pyrimidin-6-yl)piperazin-1-yl)-2-oxoethyl)-3-fluoro-5-(methylamino)benzamide]
< 100 nM | < 100 nM | CCc1c(N2CCN(C(=O)NS(=O)(=O)c3cnn(C)c3)CC2)c(=O)n2nc(C3=CCOCC3)nc2n1CC(=O)Nc1ccc(C(F)(F)F)cc1Cl [Example 14, 4-(4-(2-((2-Chloro-4-(trifluoromethyl)phenyl)amino)-2-oxoethyl)-2-(3,6-dihydro-2H-pyran-4-yl)-5-ethyl-7-oxo-4,7-dihydro-[1,2,4]triazolo[1,5-a]pyrimidin-6-yl)-N-((1-methyl-1H-pyrazol-4-yl)sulfonyl)piperazine-1-carboxamide]
